Laboratory results as given in PubChem BioAssay AID1259411 (Chemical Carcinogenesis Research Information System (CCRIS), 2018).
The source made the active and inactive calls. No rule for the calls is given here.

System: rodent carcinogenicity bioassays, tumor incidence
Assay: CCRIS carcinogenicity studies
Summary of the method: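 NCI-built, expert-reviewed records of carcinogenicity and related test outcomes (mutagenicity, tumor promotion/inhibition) compiled from published and report sources, historical span 1985-2011, not updated.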

**Q.** What does the source list for `c1ccc2c(c1)-c1cccc3cccc-2c13`?
**A.** carcinogen call (Species: MOUSE, Strain/Sex: B6C3F1/MALE, Route: INTRAPERITONEAL, Dose: 0, 400 NMOL IN 35 µL DMSO ON DAYS 1 (1/7 TOTAL DOSE), 8 (2/7 TOTAL DOSE), AND 15 (4/7 TOTAL DOSE) AFTER BIRTH (STUDY DUR): inactive; negative; carcinogen call (Species: MOUSE, Strain/Sex: CD-1/FEMALE, Route: INTRAPERITONEAL, Dose: 0, 3.46, 17.3 UMOL (TOTAL DOSE) IN DMSO ADMINISTERED ON DAYS 1, 8, AND 15 OF LIFE (STUDY DURATION: 52 WK), Dose: 0, 3.46, 17.3 UMOL (TOTAL DOSE) IN DMSO ADMINISTERED ON DAYS 1, 8, AND 15 OF LIFE (STUDY DURATION: 52 WK), Tumor Site: Type of Lesion: LUNG: TUMOR): active; positive; carcinogen call (Species: MOUSE, Strain/Sex: CD-1/MALE, FEMALE, Route: INTRAPERITONEAL, Dose: 0, 0.7, 1.75, 3.5 (TOTAL DOSE) ADMINISTERED TO NEWBORN MICE ON DAYS 1, 8, AND 15 OF AGE IN 1/7, 2/7, AND 4/7 DOSES, RESP, Dose: 0, 0.7, 1.75, 3.5 (TOTAL DOSE) ADMINISTERED TO NEWBORN MICE ON DAYS 1, 8, AND 15 OF AGE IN 1/7, 2/7, AND 4/7 DOSES, RESP, Tumor Site: Type of Lesion: LUNG: ADENOMA OR ADENOCARCINOMA): active; positive; carcinogen call (Species: MOUSE, Strain/Sex: CD-1/MALE, Route: INTRAPERITONEAL, Dose: 0, 3.46, 17.3 UMOL (TOTAL DOSE) IN DMSO ADMINISTERED ON DAYS 1, 8, AND 15 OF LIFE (STUDY DURATION: 52 WK), Dose: 0, 3.46, 17.3 UMOL (TOTAL DOSE) IN DMSO ADMINISTERED ON DAYS 1, 8, AND 15 OF LIFE (STUDY DURATION: 52 WK), Tumor Site: Type of Lesion: LUNG: TUMOR, LIVER: TUMOR): active; positive; carcinogen call (Species: MOUSE, Strain/Sex: ICR/FEMALE, Route: INTRAPERITONEAL, Dose: 0, 257.6 UG TOTAL DOSE (36.8 UG/5 µL, 73.6 UG/10 µL, 147.2 UG/20 µL DMSO ON DAYS 1, 8 AND 15) ADMINISTERED TO NEWBORN AN, Tumor Site: Type of Lesion: LUNG: ADENOMA): active; positive; carcinogen call (Species: MOUSE, Strain/Sex: ICR/MALE, Route: INTRAPERITONEAL, Dose: 0, 257.6 UG TOTAL DOSE (36.8 UG/5 µL, 73.6 UG/10 µL, 147.2 UG/20 µL DMSO ON DAYS 1, 8 AND 15) ADMINISTERED TO NEWBORN AN, Tumor Site: Type of Lesion: LUNG: ADENOMA): active; positive; carcinogen call (Species: MOUSE, Strain/Sex: SWISS/FEMALE, Route: INTRAPERITONEAL, Dose: 0, 100, 500 UG IN DMSO ON DAY 1 OF STUDY FOLLOWED BY 0, 200, 1000 UG ON DAY 8 THEN 0, 400, 2000 UG ON DAY 15 ADMINISTERE, Dose: 0, 100, 500 UG IN DMSO ON DAY 1 OF STUDY FOLLOWED BY 0, 200, 1000 UG ON DAY 8 THEN 0, 400, 2000 UG ON DAY 15 ADMINISTERE, Tumor Site: Type of Lesion: LUNG: ADENOMA OR CARCINOMA): active; positive; carcinogen call (Species: MOUSE, Strain/Sex: SWISS/MALE, Route: INTRAPERITONEAL, Dose: 0, 100, 500 UG IN DMSO ON DAY 1 OF STUDY FOLLOWED BY 0, 200, 1000 UG ON DAY 8 THEN 0, 400, 2000 UG ON DAY 15 ADMINISTERE, Dose: 0, 100, 500 UG IN DMSO ON DAY 1 OF STUDY FOLLOWED BY 0, 200, 1000 UG ON DAY 8 THEN 0, 400, 2000 UG ON DAY 15 ADMINISTERE, Tumor Site: Type of Lesion: LUNG: ADENOMA OR CARCINOMA): active; positive

**Q.** What does the source list for `CC(=O)OC[C@H]1O[C@H](O[C@]2(COC(C)=O)O[C@H](COC(=O)C(C)C)[C@@H](OC(=O)C(C)C)[C@@H]2OC(=O)C(C)C)[C@H](OC(=O)C(C)C)[C@@H](OC(=O)C(C)C)[C@@H]1OC(=O)C(C)C`?
**A.** carcinogen call (Species: MONKEY, Strain/Sex: CYNOMOLGUS/FEMALE, Route: GAVAGE, Dose: 0, 500, 1450, 2400 MG/KG BW 1X/D FOR 52 WK (STUDY DURATION: 52 WK), Dose: 0, 500, 1450, 2400 MG/KG BW 1X/D FOR 52 WK (STUDY DURATION: 52 WK)): inactive; negative; carcinogen call (Species: MONKEY, Strain/Sex: CYNOMOLGUS/MALE, Route: GAVAGE, Dose: 0, 500, 1450, 2400 MG/KG BW 1X/D FOR 52 WK (STUDY DURATION: 52 WK), Dose: 0, 500, 1450, 2400 MG/KG BW 1X/D FOR 52 WK (STUDY DURATION: 52 WK)): inactive; negative; carcinogen call (Species: MOUSE, Strain/Sex: B6C3F1/FEMALE, Route: ORAL, Dose: 0, 1.25, 2.5, 5 G/KG BW IN DIET FOR 2 YR (STUDY DURATION: 2 YR), Dose: 0, 1.25, 2.5, 5 G/KG BW IN DIET FOR 2 YR (STUDY DURATION: 2 YR)): inactive; negative; carcinogen call (Species: MOUSE, Strain/Sex: B6C3F1/MALE, Route: ORAL, Dose: 0, 1.25, 2.5, 5 G/KG BW IN DIET FOR 2 YR (STUDY DURATION: 2 YR), Dose: 0, 1.25, 2.5, 5 G/KG BW IN DIET FOR 2 YR (STUDY DURATION: 2 YR)): inactive; negative; carcinogen call (Species: RAT, Strain/Sex: F344/FEMALE, Route: ORAL, Dose: 0 0.5, 1, 2 G/KG BE IN DIET FOR 2 YR (STUDY DURATION: 2 YR), Dose: 0 0.5, 1, 2 G/KG BE IN DIET FOR 2 YR (STUDY DURATION: 2 YR)): inactive; negative; carcinogen call (Species: RAT, Strain/Sex: F344/MALE, Route: ORAL, Dose: 0, 0.5, 1, 2 G/KG BW IN DIET FOR 2 YR (STUDY DURATION: 2 YR), Dose: 0, 0.5, 1, 2 G/KG BW IN DIET FOR 2 YR (STUDY DURATION: 2 YR)): inactive; negative

**Q.** How did the carcinogen call (Species: HAMSTER, Strain/Sex: SYRIAN/FEMALE, Route: GAVAGE, Dose: 0, 2.4 MG IN 0.2 ML OF WATER 1/WK FOR 41 WK FOR A TOTAL DOSE OF 98 MG (STUDY DURATION: 45 WK), Tumor Site: Type of Lesion: NASAL MUCOSA: CARCINOMA, ADENOMA) turn out when `CN(CC(O)CO)N=O` (stereo not given) was run?
**A.** Its carcinogen call is “active; positive”.

**Q.** Which results are given for `Clc1c(Cl)c(Cl)c(Cl)c(Cl)c1Cl`?
**A.** carcinogen call (Species: HAMSTER, Route: ORAL, Tumor Site: Type of Lesion: THYROID GLAND, LIVER): active; positive; carcinogen call (Species: MOUSE, Route: ORAL, Tumor Site: Type of Lesion: LIVER): active; positive; carcinogen call (Species: RAT, Strain/Sex: F344/FEMALE, Route: ORAL, Dose: 0, 0.02% IN DIET FOR 30 WK (STUDY DURATION: 35 WK)): inactive; negative; carcinogen call (Species: RAT, Strain/Sex: F344/FEMALE, Route: ORAL, Dose: 0, 0.02% OF DIET FOR 90 WK (STUDY DURATION: 90 WK), Tumor Site: Type of Lesion: LIVER: HEPATOCELLULAR CARCINOMA OR NEOPLASTIC NODULE): active; positive; carcinogen call (Species: RAT, Strain/Sex: F344/MALE, Route: ORAL, Dose: 0, 0.02% IN DIET FOR 30 WK (STUDY DURATION: 35 WK)): inactive; negative; carcinogen call (Species: RAT, Strain/Sex: F344/MALE, Route: ORAL, Dose: 0, 0.02% OF DIET FOR 90 WK (STUDY DURATION: 90 WK)): inactive; negative

**Q.** For `CCc1nc(N)nc(N)c1-c1ccc(Cl)cc1`, which carcinogen call (Species: MOUSE, Strain/Sex: B6C3F1/FEMALE, Route: ORAL, Dose: 0, 500, 1000 PPM IN DIET, Dose: 0, 500, 1000 PPM IN DIET) is on record?
**A.** Its carcinogen call is “inactive; negative”.

**Q.** What about the carcinogen call (Species: RAT, Strain/Sex: F344/FEMALE, Route: ORAL, Dose: 0, 200, 400 PPM IN DIET 5 D/WK, Dose: 0, 200, 400 PPM IN DIET 5 D/WK) of the same compound?
**A.** Its carcinogen call is “inactive; negative”.

**Q.** What about the carcinogen call (Species: RAT, Strain/Sex: F344/MALE, Route: ORAL, Dose: 0, 200, 400 PPM IN DIET 5 D/WK, Dose: 0, 200, 400 PPM IN DIET 5 D/WK) of the same compound?
**A.** Its carcinogen call is “inactive; negative”.

**Q.** How did the carcinogen call (Species: RAT, Strain/Sex: F344/MALE, Route: INTRAMUSCULAR, Tumor Site: Type of Lesion: INJECTION SITE: SARCOMA) turn out when `[Ni]#[Sb]` was run?
**A.** Its carcinogen call is “active; positive”.

**Q.** With `CCC1c2ccc(O)cc2C(C)C1c1ccc(O)cc1` (stereo not given) as the compound, how does the carcinogen call (Species: HAMSTER, Strain/Sex: SYRIAN/MALE, Route: SUBCUTANEOUS IMPLANT, Dose: 0, 20 MG IN PELLETS IMPLANTED EVERY 2.5 MO FOR 9 MO (STUDY DURATION: 9 MO)) read?
**A.** Its carcinogen call is “inactive; negative”.

**Q.** What does the source list for `O=C(O)C1=NN(c2ccc(S(=O)(=O)O)cc2)C(=O)C1N=Nc1ccc(S(=O)(=O)O)cc1` (stereo not given)?
**A.** carcinogen call (Species: MOUSE, Strain/Sex: ICR/FEMALE, Route: DERMAL, Dose: 0, 1 MG IN 0.1 ML DISTILLED WATER 2/WK FOR A MEAN TOTAL DOSE OF 133.4 MG (STUDY DURATION: 18 MO)): inactive; negative; carcinogen call (Species: MOUSE, Strain/Sex: ICR/MALE, Route: DERMAL, Dose: 0, 1 MG IN 0.1 ML DISTILLED WATER 2/WK FOR A MEAN TOTAL DOSE OF 133.4 MG (STUDY DURATION: 18 MO)): inactive; negative; carcinogen call (Species: RAT, Strain/Sex: F344/FEMALE, Route: ORAL, Dose: 0, 1, 2% IN DRINKING WATER FOR 104 WK (STUDY DURATION: 112 WK), Dose: 0, 1, 2% IN DRINKING WATER FOR 104 WK (STUDY DURATION: 112 WK)): inactive; negative; carcinogen call (Species: RAT, Strain/Sex: F344/MALE, Route: ORAL, Dose: 0, 1, 2% IN DRINKING WATER FOR 104 WK (STUDY DURATION: 112 WK), Dose: 0, 1, 2% IN DRINKING WATER FOR 104 WK (STUDY DURATION: 112 WK)): inactive; negative
